Data on ten molecules can be found in PubChem BioAssay (NCI).

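All cell lines were grown in 96-well plates and treated with compound for 48 hours. Abbreviation: GI50, concentration required for 50% inhibition of growth. TGI is the concentration that stops growth completely.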 Some results are limits rather than exact numbers.

Among the test systems are KM12 colon; NCI-H460 lung; HCT-116 colon; NCI/ADR-RES ovarian; SF-295 CNS; A498 renal; ACHN renal; 786-0 renal; HT29 colon; SR leukemia.
Common to all, as to experiment: growth of human tumour cells (NCI), 48 h

Consider `CN(O)C(=S)c1ccccc1`, for which the TGI in the assay on KM12 colon came to 31.8 µM; in the assay with NCI-H460 lung, 18.3 µM; in the assay on HCT-116 colon, 5.07 µM; in the assay on NCI/ADR-RES ovarian it was 7.88 µM; with SF-295 CNS it was 35.9 µM; in the assay on A498 renal, 68.2 µM. The TGI in the assay with ACHN renal is 37.7 µM; in the assay with 786-0 renal, 14.3 µM.
With `COC(=O)C(=O)C(C(=O)C(=O)Nc1ccc(C)cc1)c1nc2ccc(C(=O)c3ccccc3)cc2[nH]c1=O` (configuration not stated), the TGI with KM12 colon, with NCI-H460 lung, in the assay on HCT-116 colon, with HT29 colon, with NCI/ADR-RES ovarian and in the assay with SF-295 CNS was more than 100 µM each time. Besides, the TGI in the assay on A498 renal, with ACHN renal and with 786-0 renal was more than 100 µM in each case.
In the case of `N#Cc1c(N)nc(N2CCSCC2)c(C#N)c1-c1ccc(O)cc1`, the GI50 is 20.2 µM in the assay with KM12 colon; 13.4 µM with NCI-H460 lung; 11.2 µM with SR leukemia; 16.7 µM with HT29 colon; 20.6 µM with NCI/ADR-RES ovarian; 18.4 µM with SF-295 CNS. The results for the GI50 with A498 renal, in the assay on ACHN renal and in the assay on 786-0 renal were 13.4 µM, 18.9 µM and 13.5 µM, respectively. In addition, the TGI stood at 92.2 µM with KM12 colon; 29.5 µM in the assay on NCI-H460 lung; 38.1 µM in the assay on SR leukemia; 37.6 µM with HT29 colon; 67.1 µM with NCI/ADR-RES ovarian; 55.7 µM with SF-295 CNS. Further, the TGI in the assay with A498 renal amounted to 29.8 µM; in the assay on ACHN renal it was 59 µM; with 786-0 renal, 30.4 µM.
For the molecule `COc1ccc(/C=C2\CC(C)CC3C2=NN(c2ccccc2)C3c2ccc(OC)c(OC)c2)cc1OC` (configuration not stated), the GI50 in the assay on NCI-H460 lung is 3.09 µM; with SR leukemia, 2.82 µM; with HT29 colon, 3.18 µM; with NCI/ADR-RES ovarian it was 2.71 µM; in the assay with SF-295 CNS, 3.59 µM; with A498 renal, 14.5 µM. Moreover, the GI50 with ACHN renal is 4.48 µM; in the assay on 786-0 renal, 5.24 µM. Also, the TGI in the assay with NCI-H460 lung came to 12.4 µM; in the assay on SR leukemia it was 12.4 µM; with HT29 colon, 16.1 µM; with NCI/ADR-RES ovarian, 9.51 µM; in the assay with SF-295 CNS, 57.6 µM; in the assay on A498 renal it was 72.7 µM. Further, the TGI in the assay on ACHN renal was 48.6 µM; with 786-0 renal, 37.3 µM.
On to `CC(=O)C1CCC2C3CC=C4CC(SC(=N)N)CCC4(C)C3CCC12C` (configuration not stated), for which the GI50 was 1.58 µM in the assay on NCI-H460 lung; 0.809 µM in the assay with HT29 colon; 2 µM with NCI/ADR-RES ovarian; 1.49 µM in the assay with SF-295 CNS; 1.19 µM with A498 renal; 1.64 µM in the assay on 786-0 renal. The TGI was 3.09 µM in the assay on NCI-H460 lung; 2.14 µM in the assay with HT29 colon; 5.28 µM with NCI/ADR-RES ovarian; 2.99 µM with SF-295 CNS; 3.73 µM with A498 renal; 3.29 µM in the assay on 786-0 renal.
As for `NNC(=S)Nc1cccc(Cl)c1`, the TGI in the assay on KM12 colon, in the assay with NCI-H460 lung, in the assay with HCT-116 colon, with HT29 colon, in the assay on NCI/ADR-RES ovarian and in the assay on SF-295 CNS was more than 100 µM throughout. Moreover, the TGI in the assay on A498 renal, with ACHN renal and with 786-0 renal was more than 100 µM each time.
For `CC(=O)O[C@H]1C(=O)[C@@]2(C)[C@H]([C@H](OC(=O)c3ccccc3)[C@@]3(O)C[C@H](O)C(C)=C1C3(C)C)[C@]1(OC(C)=O)CO[C@@H]1C[C@@H]2O`, the TGI with KM12 colon was more than 100 µM; with NCI-H460 lung, more than 100 µM; in the assay with HCT-116 colon, more than 100 µM; with SR leukemia, more than 100 µM; with HT29 colon, 86.6 µM; with NCI/ADR-RES ovarian, more than 100 µM. In addition, the TGI in the assay on SF-295 CNS, in the assay with ACHN renal and with 786-0 renal was more than 100 µM in each case.
Turning to `COC(=O)C1=C(O)[C@H](C(=O)OC)[C@]2(O)[C@@H](C(=O)OC)[C@H]1C[C@@H](c1ccc(OC(=O)/C=C/c3ccco3)cc1)[C@@H]2C(=O)OC`, the GI50 in the assay with KM12 colon was 43.7 µM; in the assay on NCI-H460 lung it was 33 µM; with HCT-116 colon it was 4.9 µM; with HT29 colon it was 11.5 µM; in the assay with NCI/ADR-RES ovarian, 12.3 µM; in the assay with SF-295 CNS, 19.6 µM. Besides, the GI50 in the assay on ACHN renal was 14.4 µM; in the assay on 786-0 renal, 11.8 µM. Further, the TGI was more than 100 µM in the assay with KM12 colon; more than 100 µM in the assay with NCI-H460 lung; 17.6 µM in the assay on HCT-116 colon; more than 100 µM in the assay with HT29 colon; 32.2 µM in the assay with NCI/ADR-RES ovarian; 65.2 µM with SF-295 CNS. In addition, the TGI in the assay with ACHN renal amounted to 28.7 µM; with 786-0 renal, 30.6 µM.
With `O=C(Nc1cccnc1)c1ccc2ccc3ccc(C(=O)Nc4cccnc4)nc3c2n1`, the GI50 with KM12 colon is 0.0546 µM; in the assay on NCI-H460 lung, 0.0537 µM; in the assay with SR leukemia it was 0.155 µM; in the assay on HT29 colon, 0.0458 µM; in the assay with NCI/ADR-RES ovarian, more than 100 µM; in the assay with SF-295 CNS, 0.252 µM. Moreover, the GI50 was 0.214 µM in the assay on A498 renal, 0.145 µM with ACHN renal and 0.206 µM in the assay on 786-0 renal. The TGI in the assay on KM12 colon is more than 100 µM; in the assay on SR leukemia, more than 100 µM; in the assay on HT29 colon, more than 100 µM; with NCI/ADR-RES ovarian, more than 100 µM; in the assay with SF-295 CNS, more than 100 µM; in the assay with A498 renal, 0.553 µM. For the same molecule, the TGI in the assay on ACHN renal and in the assay with 786-0 renal was more than 100 µM throughout.
For the molecule `CCOC(=O)c1csc(NC(=O)COc2cccc(/C=C3\CSc4ccccc4C3=O)c2)n1`, the GI50 was 0.289 µM with KM12 colon; 9.3 µM with NCI-H460 lung; 1.63 µM in the assay on HCT-116 colon; 0.608 µM with HT29 colon; 2.46 µM in the assay with NCI/ADR-RES ovarian; 0.908 µM in the assay on SF-295 CNS. Besides, the GI50 is 12.1 µM in the assay with A498 renal, 2.64 µM in the assay on ACHN renal and 0.561 µM in the assay with 786-0 renal. In addition, the TGI in the assay with KM12 colon was found to be 1.35 µM; with NCI-H460 lung, 25 µM; in the assay on HCT-116 colon, 3.04 µM; in the assay on HT29 colon, 2.18 µM; with NCI/ADR-RES ovarian, 5.66 µM; in the assay on SF-295 CNS, 2.44 µM. For the same molecule, the TGI with A498 renal came to 24.5 µM; in the assay with ACHN renal, 8.99 µM; with 786-0 renal, 1.69 µM.
